ChEMBL document CHEMBL4842346, “Improving the metabolic stability of antifungal compounds based on a scaffold hopping strategy: Design, synthesis, and structure-activity relationship studies of dihydrooxazole derivatives” (Eur J Med Chem, 2021)
Converted amounts (≈) assume the structure as drawn.

Legend:
[1] = target: T1, Lanosterol 14-alpha demethylase (Candida albicans (strain SC5314 / ATCC MYA-2876) (Yeast), UniProt P10613); assay: Inhibition of Candida albicans CYP51 assessed as lanosterol level at 0.015 ug/ml measured after 18 hrs by GC-MS analysis relative to control; parameters: scale not given: the % may be the effect or the level left; conditions: at 0.015 µg/mL
T1 sequence (P10613 whole entry): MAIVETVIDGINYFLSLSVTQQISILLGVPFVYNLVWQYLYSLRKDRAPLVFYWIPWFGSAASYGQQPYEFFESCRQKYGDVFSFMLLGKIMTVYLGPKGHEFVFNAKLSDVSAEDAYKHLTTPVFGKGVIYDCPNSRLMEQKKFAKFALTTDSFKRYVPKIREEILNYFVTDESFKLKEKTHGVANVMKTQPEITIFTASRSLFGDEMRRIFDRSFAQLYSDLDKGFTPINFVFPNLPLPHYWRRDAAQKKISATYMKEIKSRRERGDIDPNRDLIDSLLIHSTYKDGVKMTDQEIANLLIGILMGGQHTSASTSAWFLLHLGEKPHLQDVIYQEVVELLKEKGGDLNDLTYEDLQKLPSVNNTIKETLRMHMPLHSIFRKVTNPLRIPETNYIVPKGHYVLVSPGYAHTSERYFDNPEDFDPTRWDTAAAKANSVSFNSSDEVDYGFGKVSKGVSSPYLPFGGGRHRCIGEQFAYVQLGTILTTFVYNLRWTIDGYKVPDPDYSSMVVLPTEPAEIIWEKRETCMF

Candida tropicalis = assay: Antifungal activity against Candida tropicalis GIM2.183 assessed as inhibition of fungal growth by NCCLS protocol based method; assay type: functional
Candida albicans [2] = assay: Antifungal activity against Candida albicans SC5314 assessed as inhibition of fungal growth by NCCLS protocol based method; assay type: functional
Aspergillus fumigatus = assay: Antifungal activity against Aspergillus fumigatus CGMCC3.7795 assessed as inhibition of fungal growth by NCCLS protocol based method; assay type: functional
Candida albicans [3] = assay: Antifungal activity against Candida albicans GIM2.194 assessed as inhibition of fungal growth by NCCLS protocol based method; assay type: functional
Pichia kudriavzevii = assay: Antifungal activity against Candida krusei GIM2.1 assessed as inhibition of fungal growth by NCCLS protocol based method; assay type: functional
Candida parapsilosis = assay: Antifungal activity against Candida parapsilosis GIM2.190 assessed as inhibition of fungal growth by NCCLS protocol based method; assay type: functional; conditions: Lodderomyces parapsilosis
Candida albicans [4] = assay: Antifungal activity against fluconazole resistant Candida albicans CaR assessed as inhibition of fungal growth by NCCLS protocol based method; assay type: functional
Candida albicans [5] = assay: Antifungal activity against fluconazole and itraconazole resistant Candida albicans 17# assessed as inhibition of fungal growth by NCCLS protocol based method; assay type: functional
[6] = Metabolic stability in human liver microsomes assessed as half life at 100 uM in the presence of NADPH measured upto 60 mins by LC-MS/MS analysis; assay type: ADME, Microsome
[7] = Intrinsic microsomal clearance in human liver microsomes at 100 uM in the presence of NADPH measured up to 60 mins by LC-MS/MS analysis; assay type: ADME, Microsome; conditions: read-out: CLH
[8] = Metabolic stability in human liver microsomes assessed as compound remaining at 100 uM measured after 60 mins in the presence of NADPH by LC-MS/MS analysis; assay type: ADME, Microsome; conditions: read-out: Stabilty
[9] = Metabolic stability in human liver microsomes assessed as compound remaining at 100 uM measured after 60 mins in the absence of NADPH by LC-MS/MS analysis; assay type: ADME, Microsome; conditions: read-out: Stabilty
[10] = Metabolic stability in human plasma assessed as parent compound remaining at 100 uM measured after 60 mins by LC-MS/MS analysis; assay type: ADME, cell-free; conditions: read-out: Stabilty
[11] = Metabolic stability in human plasma assessed as parent compound remaining at 100 uM measured after 120 mins by LC-MS/MS analysis; assay type: ADME, cell-free; conditions: 2 h
[12] = Metabolic stability in human plasma assessed as half life at 100 uM measured after 60 mins by LC-MS/MS analysis; assay type: ADME, cell-free
Cytochrome P450 1A2 = target: T2, Cytochrome P450 1A2 (Homo sapiens, UniProt P05177); assay: Inhibition of CYP1A2 in human liver microsome incubated for 10 mins in the presence of NADPH by LC-MS/MS analysis; assay type: ADME, microsomes
T2 sequence (P05177 whole entry): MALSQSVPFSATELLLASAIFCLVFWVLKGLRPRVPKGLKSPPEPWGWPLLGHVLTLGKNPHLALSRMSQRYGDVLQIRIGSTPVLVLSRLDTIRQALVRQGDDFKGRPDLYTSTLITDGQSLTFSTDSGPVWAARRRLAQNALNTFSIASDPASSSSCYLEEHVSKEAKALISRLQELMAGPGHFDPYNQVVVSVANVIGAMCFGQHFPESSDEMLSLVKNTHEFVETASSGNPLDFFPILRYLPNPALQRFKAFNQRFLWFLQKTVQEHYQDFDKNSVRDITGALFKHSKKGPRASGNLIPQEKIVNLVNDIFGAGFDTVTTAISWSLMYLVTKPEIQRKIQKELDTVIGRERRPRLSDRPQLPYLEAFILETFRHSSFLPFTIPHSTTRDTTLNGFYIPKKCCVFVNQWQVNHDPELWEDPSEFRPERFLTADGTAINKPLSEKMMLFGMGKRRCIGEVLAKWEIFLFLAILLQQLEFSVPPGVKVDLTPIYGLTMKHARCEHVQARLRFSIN

Cytochrome P450 2C9 = Cytochrome P450 2C9 (Homo sapiens, UniProt P11712); assay: Inhibition of CYP2C9 in human liver microsome incubated for 10 mins in the presence of NADPH by LC-MS/MS analysis; assay type: ADME, microsomes
Chain of Cytochrome P450 2C9 (P11712 whole entry): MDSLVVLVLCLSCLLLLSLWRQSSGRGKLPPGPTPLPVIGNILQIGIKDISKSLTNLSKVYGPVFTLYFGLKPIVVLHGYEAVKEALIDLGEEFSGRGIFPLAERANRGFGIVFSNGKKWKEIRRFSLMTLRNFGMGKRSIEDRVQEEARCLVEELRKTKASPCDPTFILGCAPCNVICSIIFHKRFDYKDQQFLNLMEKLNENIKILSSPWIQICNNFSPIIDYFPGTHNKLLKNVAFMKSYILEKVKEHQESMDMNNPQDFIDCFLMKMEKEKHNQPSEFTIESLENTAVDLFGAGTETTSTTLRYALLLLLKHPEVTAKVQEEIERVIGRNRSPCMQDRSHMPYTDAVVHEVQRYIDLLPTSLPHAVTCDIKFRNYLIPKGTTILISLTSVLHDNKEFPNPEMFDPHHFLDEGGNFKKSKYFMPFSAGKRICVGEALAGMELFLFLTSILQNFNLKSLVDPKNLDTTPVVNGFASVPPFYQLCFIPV

Cytochrome P450 2C19 = Cytochrome P450 2C19 (Homo sapiens, UniProt P33261); assay: Inhibition of CYP2C19 in human liver microsome incubated for 10 mins in the presence of NADPH by LC-MS/MS analysis; assay type: ADME, microsomes
Chain of Cytochrome P450 2C19 (P33261 whole entry): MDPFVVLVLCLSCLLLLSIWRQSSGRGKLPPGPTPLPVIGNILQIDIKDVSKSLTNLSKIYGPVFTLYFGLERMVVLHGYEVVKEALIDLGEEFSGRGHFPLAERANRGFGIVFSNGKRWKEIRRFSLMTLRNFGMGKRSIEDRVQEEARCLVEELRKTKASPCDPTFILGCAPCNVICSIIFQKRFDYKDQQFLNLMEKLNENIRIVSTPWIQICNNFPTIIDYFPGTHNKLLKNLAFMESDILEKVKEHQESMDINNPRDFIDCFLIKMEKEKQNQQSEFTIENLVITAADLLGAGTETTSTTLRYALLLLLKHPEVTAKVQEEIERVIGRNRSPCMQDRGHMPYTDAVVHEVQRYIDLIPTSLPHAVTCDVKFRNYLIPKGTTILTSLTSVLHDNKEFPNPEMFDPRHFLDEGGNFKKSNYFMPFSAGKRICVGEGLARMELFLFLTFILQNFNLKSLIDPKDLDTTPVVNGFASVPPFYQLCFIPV

Cytochrome P450 2D6 = Cytochrome P450 2D6 (Homo sapiens, UniProt P10635); assay: Inhibition of CYP2D6 in human liver microsome incubated for 10 mins in the presence of NADPH by LC-MS/MS analysis; assay type: ADME, microsomes
Chain of Cytochrome P450 2D6 (P10635 whole entry): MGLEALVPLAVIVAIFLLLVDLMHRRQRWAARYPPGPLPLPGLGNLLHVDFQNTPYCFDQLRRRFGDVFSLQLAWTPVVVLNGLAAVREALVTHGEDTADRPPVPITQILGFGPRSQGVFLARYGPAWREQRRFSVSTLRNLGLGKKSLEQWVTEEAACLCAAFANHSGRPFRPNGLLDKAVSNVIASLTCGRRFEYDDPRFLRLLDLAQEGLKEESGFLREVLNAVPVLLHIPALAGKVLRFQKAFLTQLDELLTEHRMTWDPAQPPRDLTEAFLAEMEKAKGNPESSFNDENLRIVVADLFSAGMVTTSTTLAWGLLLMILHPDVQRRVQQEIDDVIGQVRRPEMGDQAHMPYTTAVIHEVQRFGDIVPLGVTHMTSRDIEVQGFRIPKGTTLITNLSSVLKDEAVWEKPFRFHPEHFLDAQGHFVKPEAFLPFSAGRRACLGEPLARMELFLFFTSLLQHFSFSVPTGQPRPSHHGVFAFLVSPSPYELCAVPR

Cytochrome P450 3A4 = Cytochrome P450 3A4 (Homo sapiens, UniProt P08684); assay: Inhibition of CYP3A4 in human liver microsome incubated for 10 mins in the presence of NADPH by LC-MS/MS analysis; assay type: ADME, microsomes
Chain of Cytochrome P450 3A4 (P08684 whole entry): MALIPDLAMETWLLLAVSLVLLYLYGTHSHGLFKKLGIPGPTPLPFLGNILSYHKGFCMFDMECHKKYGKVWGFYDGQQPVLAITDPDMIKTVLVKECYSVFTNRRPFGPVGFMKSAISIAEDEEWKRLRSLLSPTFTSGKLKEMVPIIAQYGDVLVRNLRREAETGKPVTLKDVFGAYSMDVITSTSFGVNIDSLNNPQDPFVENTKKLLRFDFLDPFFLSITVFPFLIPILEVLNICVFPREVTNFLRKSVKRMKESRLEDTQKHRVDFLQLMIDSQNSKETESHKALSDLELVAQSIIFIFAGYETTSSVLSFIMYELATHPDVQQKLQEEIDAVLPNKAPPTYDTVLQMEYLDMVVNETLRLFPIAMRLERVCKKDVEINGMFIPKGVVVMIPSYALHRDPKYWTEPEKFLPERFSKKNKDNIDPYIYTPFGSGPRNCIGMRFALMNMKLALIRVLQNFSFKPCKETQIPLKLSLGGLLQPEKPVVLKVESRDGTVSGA

[13] = Initial plasma concentration in Sprague-Dawley rat at 2 mg/kg, iv by LC-MS/MS analysis; assay type: ADME, organism-based
[14] = Half life in Sprague-Dawley rat at 2 mg/kg, iv measured up to 24 hrs by LC-MS/MS analysis; assay type: ADME, organism-based; conditions: in vivo
[15] = Volume of distribution at steady state in Sprague-Dawley rat at 2 mg/kg, iv measured after 24 hrs by LC-MS/MS analysis; assay type: ADME, organism-based; conditions: in vivo, read-out: Vdss
[16] = Clearance in Sprague-Dawley rat at 2 mg/kg, iv measured after 24 hrs by LC-MS/MS analysis; assay type: ADME, organism-based; conditions: in vivo
[17] = AUClast in Sprague-Dawley rat at 2 mg/kg, iv measured after 24 hrs by LC-MS/MS analysis; assay type: ADME, organism-based; parameters: route intravenous, dose 2 mg/kg, time 24 hrs; conditions: in vivo
[18] = AUC (0-infinity) in Sprague-Dawley rat at 2 mg/kg, iv measured after 24 hrs by LC-MS/MS analysis; assay type: ADME, organism-based; parameters: route intravenous, dose 2 mg/kg, time 24 hrs; conditions: in vivo
[19] = Cmax in Sprague-Dawley rat at 10 mg/kg, po measured up to 24 hrs by LC-MS/MS analysis; assay type: ADME, organism-based; parameters: route oral, dose 10 mg/kg, time <=24; conditions: in vivo
[20] = Tmax in Sprague-Dawley rat at 10 mg/kg, po measured up to 24 hrs by LC-MS/MS analysis; assay type: ADME, organism-based; conditions: in vivo
[21] = AUClast in Sprague-Dawley rat at 10 mg/kg, po measured after 24 hrs by LC-MS/MS analysis; assay type: ADME, organism-based; parameters: route oral, time 24 hrs, dose 10 mg/kg; conditions: in vivo
[22] = Oral bioavailability in Sprague-Dawley rat at 10 mg/kg measured after 24 hrs by LC-MS/MS analysis; assay type: ADME, organism-based; conditions: in vivo
[23] = target: T1, Lanosterol 14-alpha demethylase; assay: Inhibition of Candida albicans CYP51 assessed as ergosterol level at 0.015 ug/ml measured after 18 hrs by GC-MS analysis relative to control; parameters: scale not given: the % may be the effect or the level left; conditions: at 0.015 µg/mL
[24] = target: T1, Lanosterol 14-alpha demethylase; assay: Inhibition of Candida albicans CYP51 assessed as eburicol level at 0.015 ug/ml measured after 18 hrs by GC-MS analysis relative to control; parameters: scale not given: the % may be the effect or the level left; conditions: at 0.015 µg/mL
[25] = target: T1, Lanosterol 14-alpha demethylase; assay: Inhibition of Candida albicans CYP51 assessed as 14alpha-methylergosta-8,24(28)-dien3beta-6alpha-diol level at 0.015 ug/ml measured after 18 hrs by GC-MS analysis relative to control; parameters: scale not given: the % may be the effect or the level left; conditions: at 0.015 µg/mL
[26] = target: T1, Lanosterol 14-alpha demethylase; assay: Inhibition of Candida albicans CYP51 assessed as unknown sterol level at 0.015 ug/ml measured after 18 hrs by GC-MS analysis relative to control; parameters: scale not given: the % may be the effect or the level left; conditions: at 0.015 µg/mL
[27] = Intrinsic hepatic clearance in human liver microsomes at 100 uM in the presence of NADPH measured up to 60 mins by LC-MS/MS analysis; assay type: ADME, Microsome; conditions: 1 h
Cryptococcus neoformans [28] = assay: Antifungal activity against Cryptococcus neoformans GIM2.209 assessed as inhibition of fungal growth by NCCLS protocol based method; assay type: functional
Candida albicans [29] = assay: Antifungal activity against Candida albicans CPCC400523 assessed as inhibition of fungal growth by NCCLS protocol based method; assay type: functional
Cryptococcus neoformans [30] = assay: Antifungal activity against Cryptococcus neoformans CGMCC2.3161 assessed as inhibition of fungal growth by NCCLS protocol based method; assay type: functional
[31] = target: T1, Lanosterol 14-alpha demethylase; assay: Inhibition of Candida albicans CYP51 assessed as lanosterol level at 0.25 ug/ml measured after 18 hrs by GC-MS analysis relative to control; parameters: scale not given: the % may be the effect or the level left; conditions: at 0.25 µg/mL
[32] = target: T1, Lanosterol 14-alpha demethylase; assay: Inhibition of Candida albicans CYP51 assessed as ergosterol level at 0.25 ug/ml measured after 18 hrs by GC-MS analysis relative to control; parameters: scale not given: the % may be the effect or the level left; conditions: at 0.25 µg/mL
[33] = target: T1, Lanosterol 14-alpha demethylase; assay: Inhibition of Candida albicans CYP51 assessed as eburicol level at 0.25 ug/ml measured after 18 hrs by GC-MS analysis relative to control; parameters: scale not given: the % may be the effect or the level left; conditions: at 0.25 µg/mL
[34] = target: T1, Lanosterol 14-alpha demethylase; assay: Inhibition of Candida albicans CYP51 assessed as 14alpha-methylergosta-8,24(28)-dien3beta-6alpha-diol level at 0.25 ug/ml measured after 18 hrs by GC-MS analysis relative to control; parameters: scale not given: the % may be the effect or the level left; conditions: at 0.25 µg/mL
[35] = target: T1, Lanosterol 14-alpha demethylase; assay: Inhibition of Candida albicans CYP51 assessed as unknown sterol level at 0.25 ug/ml measured after 18 hrs by GC-MS analysis relative to control; parameters: scale not given: the % may be the effect or the level left; conditions: at 0.25 µg/mL

Row | Structure (SMILES) | Activity [1] | MIC (Candida tropicalis) | MIC (Candida albicans [2]) | MIC (Aspergillus fumigatus) | MIC (Candida albicans [3]) | MIC (Pichia kudriavzevii) | MIC (Candida parapsilosis) | MIC (Candida albicans [4]) | MIC (Candida albicans [5]) | half-life at 100 µM [6] | microsomal CLint at 100 µM [7] | remaining at 1 h, 100 µM [8] | remaining at 1 h, 100 µM [9] | remaining at 1 h, 100 µM [10] | Stabilty [11] | half-life at 100 µM [12] | IC50 (Cytochrome P450 1A2) | IC50 (Cytochrome P450 2C9) | IC50 (Cytochrome P450 2C19) | IC50 (Cytochrome P450 2D6) | further results
1 | Fc1ccc(C2(Cn3cncn3)COC(c3ccc(-c4ccccc4F)cc3)=N2)cc1 (configuration not stated) | 18.89% | 0.06 µg/mL (≈ 0.144 µM) | < 0.03 µg/mL | > 64 µg/mL | < 0.03 µg/mL | 0.25 µg/mL (≈ 0.6 µM) | 8 µg/mL (≈ 19.2 µM) | 0.25 µg/mL (≈ 0.6 µM) | > 64 µg/mL | > 2.42 h | < 9.6 µL/min/mg | 75.4% | 89.6% | 95.3% | 120.4% | > 4.8 h | 6.64 µM | 2.3 µM | 1.56 µM | > 50 µM | IC50 (Cytochrome P450 3A4): 14.8 µM; C0 [13]: 758 ng/mL; half-life [14]: 9.35 h; Vd [15]: 7.18 L/kg; clearance [16]: 10.8 mL/min/kg; AUC(0-t) at 24 h [17]: 2690 ng·h/mL; AUC(0-inf) [18]: 3130 ng·h/mL; Cmax [19]: 754 ng/mL; Tmax [20]: 5.33 h; AUC(0-t) at 24 h [21]: 10400 ng·h/mL; bioavailability [22]: 77.7%; Activity [23]: 38.82%; Activity [24]: 5.08%; Activity [25]: 32.74%; Activity [26]: 1.97%
2 | Fc1ccc(C2(Cn3cncn3)COC(c3ccc(-c4cccc(F)c4)cc3)=N2)cc1 (configuration not stated) | 18.96% | 0.06 µg/mL (≈ 0.144 µM) | < 0.03 µg/mL | > 64 µg/mL | < 0.03 µg/mL | 0.25 µg/mL (≈ 0.6 µM) | 8 µg/mL (≈ 19.2 µM) | 0.5 µg/mL (≈ 1.2 µM) | > 64 µg/mL | 0.985 h | 23.5 µL/min/mg | 47.1% | 79.9% | 98.7% | 115.8% | > 4.8 h | 21.2 µM | 3.8 µM | 1.3 µM | 40.1 µM | CLH [27]: 0.0211 mL/min/kg; IC50 (Cytochrome P450 3A4): 15.2 µM; Activity [23]: 35.8%; Activity [24]: 7.04%; Activity [25]: 34.14%; Activity [26]: 1.73%
3 | OC(Cn1cncn1)(Cn1cncn1)c1ccc(F)cc1F [FLUCONAZOLE] |  | 1 µg/mL (≈ 3.27 µM) | 0.5 µg/mL (≈ 1.63 µM) | > 64 µg/mL | 1 µg/mL (≈ 3.27 µM) | 8 µg/mL (≈ 26.1 µM) | 2 µg/mL (≈ 6.53 µM) | > 64 µg/mL | > 64 µg/mL |  |  |  |  |  |  |  |  |  |  |  | MIC (Cryptococcus neoformans [28]): 4 µg/mL (≈ 13.1 µM); MIC (Candida albicans [29]): 1 µg/mL (≈ 3.27 µM); MIC (Cryptococcus neoformans [30]): 4 µg/mL (≈ 13.1 µM); Activity [31]: 15.13%; Activity [32]: 34.27%; Activity [33]: 7.57%; Activity [34]: 30.66%; Activity [35]: 1.91%
